Tests used:
[1] = biological target: T. cruzi cathepsin L-like protease (cruzain) (Trypanosoma cruzi, UniProt P25779); test: biochemical; details: for IC50: 5 min incubation, room temperature, pH 5.50, read-out: IC50 against cruzain
Experimental: IC50 Determinations. Inhibitors were screened for effectiveness against the T. cruzi cathepsin L-like protease (cruzain) using purified recombinant protein. Cruzain (1 nM) was incubated with 20-50000 nM inhibitor in 100 mM sodium acetate-5 mM DTT buffer (pH 5.50, buffer A) for 5 min at room temperature. […] The increase in fluorescence (excitation at 355 nm and emission at 460 nm) was followed with an automated microtiter plate spectrofluorimeter (Molecular Devices, spectraMAX Gemini). Inhibitor stock solutions were prepared at 20 mM in DMSO, and serial dilutions were made in DMSO (0.7% DMSO in assay). Controls were performed using enzyme alone and enzyme with DMSO. IC50 values were determined graphically using inhibitor concentrations in the linear portion of a plot of inhibition versus log [I] (seven concentrations were tested, and at least two were in the linear range).

Sequence of T. cruzi cathepsin L-like protease (cruzain) (P25779 123-467): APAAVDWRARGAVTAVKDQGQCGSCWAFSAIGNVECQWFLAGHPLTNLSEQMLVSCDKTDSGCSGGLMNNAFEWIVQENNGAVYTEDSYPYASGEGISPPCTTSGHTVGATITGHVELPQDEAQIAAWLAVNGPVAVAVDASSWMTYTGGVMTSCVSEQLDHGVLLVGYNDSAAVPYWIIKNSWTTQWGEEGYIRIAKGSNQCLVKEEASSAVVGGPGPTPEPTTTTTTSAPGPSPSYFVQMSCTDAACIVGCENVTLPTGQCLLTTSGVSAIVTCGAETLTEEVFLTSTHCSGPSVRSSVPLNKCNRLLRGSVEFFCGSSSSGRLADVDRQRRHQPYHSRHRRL

| SMILES | melting point | also measured |
| --- | --- | --- |
| CN(C)c1ccc(C=NNC(N)=S)c2ccccc12 [Compound 1l, 4-Dimethylamino-1-naphthaldehyde Thio Semicarbazone] | 170.5 to 171.2 °C |  |
| Cn1cc(C=NNC(N)=S)c2ccccc21 [Compound 1m, 1-Methylindole-3-carboxaldehyde Thio Semicarbazone] | 200.3 to 201.2 °C |  |
| CCC(=NNC(N)=S)c1cccc(F)c1 [Compound 2c, 3′-Fluoropropiophenone Thio Semicarbazone] | 138.8 to 139.5 °C |  |
| CCC(=NNC(N)=S)c1ccc(Cl)cc1Cl [Compound 2j, 2′,4′-Dichloropropiophenone Thio Semicarbazone] | 171.8 to 173 °C |  |
| CCC(=NNC(N)=S)c1cc(C(F)(F)F)cc(C(F)(F)F)c1 [Compound 2h, 3′,5′-bis(trifluoromethyl)propiophenone Thio Semicarbazone] |  | cruzain inhibitory activity, in words [1]: better IC50 values than 1i; IC50 [1]: 20 nM; increase in activity over 1i (cruzain) ([1]; compared to 1i): ~5 fold |
| CCC(=NNC(N)=S)c1ccc(Cl)cc1 [Compound 2f, 4′-Chloropropiophenone Thio Semicarbazone] | 175.1 to 176.8 °C |  |
| CCC(=NN(SC)C(N)=O)c1cccc(Br)c1 [Compound 5a, 3′-Bromopropiophenone N-Methyl Thio Semicarbazone] | 156.6 to 158 °C |  |
| CCCCCCNC(=S)N1CCC(c2cccc(Br)c2)=N1 [Compound 5f, 3-(3-Bromophenyl)-2-pyrazoline-1-(N-hexyl)-thiocarboxamide] | 117 to 118.2 °C | IC50 [1]: 1000 to 2000 nM |
| CCC(=NNC(N)=S)c1ccc(OC)cc1 [Compound 2g, 4′-Methoxypropiophenone Thio Semicarbazone] | 117.8 to 119.8 °C |  |

Second part, led by results:

| melting point | SMILES | also measured |
| --- | --- | --- |
| 116.8 to 117.9 °C | CCC(=NNC(N)=S)c1ccccc1 [Compound 2d, Propiophenone Thio Semicarbazone] | drop / loss of activity compared to 1i (cruzain) ([1]; compared to 1i): at least 2 orders of magnitude |
| 155.8 to 156.7 °C | CC(=NNC(N)=S)c1ccccc1Cl [Compound 2m, 2′-Chloroacetophenone Thio Semicarbazone] |  |
| 192.1 to 194.8 °C | NC(=O)NN=Cc1ccc(-c2cccc(Cl)c2)o1 [Compound 6c, 5-(3-Chlorophenyl)-2-furancarboxaldehyde Semicarbazone] |  |
| 248.3 to 249.4 °C | NC(=S)NN=Cc1ccccc1C(F)(F)F [Compound 2p, 2-Trifluoromethylbenzaldehyde Thio Semicarbazone] |  |
| 170.5 to 171.2 °C | CCC(=NNC(N)=S)c1ccc2cc(OC)ccc2c1 [Compound 1k, 6′-Methoxy-2′-propiononaphthone Thio Semicarbazone] |  |
| 229.3 to 231.3 °C | CC(=NNC(N)=O)c1cccc(Br)c1 [Compound 6b, 3′-Bromoacetophenone Semicarbazone] |  |
| 144.5 to 146.2 °C | CC(=NNC(N)=S)c1ccccc1Br [Compound 2l, 2′-Bromoacetophenone Thio Semicarbazone] |  |
| 171.3 to 173 °C | CCC(=NNC(N)=S)c1ccc(Br)cc1 [Compound 2e, 4′-Bromopropiophenone Thio Semicarbazone] |  |

Reference: patent US7495023B2, “Thio semicarbazone and semicarbozone inhibitors of cysteine proteases and methods of their use” (The Regents of the University of California, priority 2002, dated 2009)
